According to patent publication US20150030566A1, “ANTIMICROBIAL PEPTIDE COMPOSITIONS FOR PLANTS” (Stellenbosch University, priority 2012, published 2015):
Residues, ends and D or L forms follow the SMILES beside them.

Legend:
[1] = tested on: P. digitatum; assay: Preliminary trials on oranges, wound infections; assay type: in vivo; conditions: 50 mg/L (50 ppm)
Experimental: Promising results in preliminarily trials on oranges have also been observed, with 50% and 80% less wound infections by P. digitatum using 50 mg/L (50 ppm) Trc mix and GS, respectively.

[2] = tested on: Delphinium flowers; assay: Cut flower trials, Delphinium; assay type: in vivo, Delphinium hybrid
Experimental: Trials with Delphinium flowers and 25 mg/L and 50 mg of GS or Trc mix and GS+Trc mix (50 mg/L combined concentration), were conducted.
Cut flower trials on mini hybrids of the African daisy (Gerbera hybrid) and blue larkspur (Delphinium hybrid) were conducted on 3-day old flowers. Flowers were prepared by cutting 3-5 cm of each stem and each placed separately in a measuring flask with 100 mL containing either no additive, Trc mix (35 mg/L for Gerbera and 25 mg/l for Delphinium), GS (35 mg/L for Gerbera and 25 mg/L for Delphinium), Trc mix+GS (combined 70 mg/L for Gerbera and combined 50 mg/L for Delphinium) or commercial additive for flower preservation. Flowers (6-12 per trial) were kept in a room with both natural and fluorescent lighting (16 hours light/day) at 22±1° C. The volume of water was monitored every 24 hours and noted for each flower.
Flower condition was rated from 0 to 5, with 0=dead, 1=flower petals dehydrated, closed and drooping, 2=flower still partially open but dehydrated and drooping, 3=flower starts drooping, petals soft, 4=some petals becoming soft, flower still in good condition and 5=flower is in pristine condition with taught petals and stem/leaves.

[3] = tested on: Aspergillus fumigatus ATCC 204305; assay: Microdilution broth assay; assay type: cell-based
Experimental: (§1) Microdilution broth and agar assays were used to assess the antifungal activity of the cyclic decapeptides in liquid media and on solid (gel) media, respectively.
(§2) The antibacterial activity of the tyrocidines and gramicidin S against all the bacteria tested was determined by the methods described by Du Toit E A and Rautenbach M (2000) J. Microbiol. Methods, 42, 159-165. The antifungal activity of the tyrocidines against all the […] tested was determined by the methods described by Troskie A M, Vlok N M and Rautenbach M (2012) J. Microbiol. Methods, 91, 551-558.

[4] = tested on: Penicillium digitatum (citrus isolate); assay: Microdilution broth assay; assay type: cell-based
Experimental: as §1, §2

[5] = tested on: Fusarium oxysporum; assay: Microdilution broth assay; assay type: cell-based
Experimental: as §1, §2

[6] = tested on: Penicillium glabrum (wood isolate); assay: Microdilution broth assay; assay type: cell-based
Experimental: as §1, §2

[7] = tested on: Penicillium expansum (peach isolate); assay: Microdilution broth assay; assay type: cell-based
Experimental: as §1, §2

[8] = tested on: Fusarium verticilliodes; assay: Microdilution broth assay; assay type: cell-based
Experimental: as §1, §2

[9] = tested on: Botrytis cinerea; assay: Microdilution broth assay; assay type: cell-based; parameters: MIC + SEM / MIC against B. cinerea in PDB (n): unit not given beside the values
Experimental: as §1, §2

[10] = tested on: Bacillus subtilis ATCC21332; assay: Microdilution broth assay; assay type: cell-based; parameters: unit not given beside the values
Experimental: as §1, §2

[11] = tested on: Bacillus spizizenii ATCC 6633; assay: Microdilution broth assay; assay type: cell-based; parameters: unit not given beside the values
Experimental: as §1, §2

[12] = tested on: Cylindrocarpon liriodendri; assay: Microdilution broth assay; assay type: cell-based; parameters: unit not given beside the values
Experimental: as §1, §2

[13] = tested on: Listeria monocytogenes B73-MR1; assay: Microdilution broth assay; assay type: cell-based; parameters: unit not given beside the values
Experimental: as §1, §2

[14] = tested on: Talaromyces ramulosus (peach isolate); assay: Microdilution broth assay; assay type: cell-based; parameters: unit not given beside the values
Experimental: as §1, §2

[15] = tested on: Micrococcus luteus NCTG 8340; assay: Microdilution broth assay; assay type: cell-based; parameters: unit not given beside the values
Experimental: as §1, §2

[16] = tested on: Bacillus subtilis OKB105; assay: Microdilution broth assay; assay type: cell-based; parameters: unit not given beside the values
Experimental: as §1, §2

[17] = tested on: Bacillus subtilis 168; assay: Microdilution broth assay; assay type: cell-based; parameters: unit not given beside the values
Experimental: as §1, §2

[18] = tested on: Trichoderma atroviride (wood isolate); assay: Microdilution broth assay; assay type: cell-based; parameters: unit not given beside the values
Experimental: as §1, §2

[19] = tested on: Listeria monocytogenes B73; assay: Microdilution broth assay; assay type: cell-based; parameters: unit not given beside the values
Experimental: as §1, §2

## CC(C)C[C@@H]1NC(=O)[C@H](CCCN)NC(=O)[C@H](C(C)C)NC(=O)C2CCCN2C(=O)[C@@H](Cc2ccccc2)NC(=O)[C@H](CC(C)C)NC(=O)[C@H](CCCN)NC(=O)[C@H](C(C)C)NC(=O)C2CCCN2C(=O)[C@@H](Cc2ccccc2)NC1=O (stereo partly drawn) [GS, Cyclo-(VOLfPVOLfP)] (HELM PEPTIDE1{L.[dF].[O=C(C1CCCN1[*:1])[*:2]].V.[Orn].L.[dF].[O=C(C1CCCN1[*:1])[*:2]].V.[Orn]}$PEPTIDE1,PEPTIDE1,1:R1-10:R2$$$V2.0)
[1]
  less wound infections by P. digitatum: 80%
[2]; 25 mg/L
  phytotoxicity: did not show overt phytotoxicity
[2]; 50 mg/L
  phytotoxicity: proved to be phytotoxic
[3]
  MIC + SEM: 8.6 ± 0.7
[4]
  MIC + SEM: 3-4
[5]
  MIC + SEM: 2.6 ± 0.2
[6]
  MIC + SEM: 4.0 ± 0.5
[7]
  MIC + SEM: 3.7 ± 0.3
[8]
  MIC + SEM: 3.5 ± 0.3
[9]; Broth, Botrytis cinerea
  MIC + SEM: 2.8 ± 0.3
[9]; potato dextrose broth (low salt PDB)
  MIC against B. cinerea in PDB (n): 1.8 ± 0.3
[10]
  MIC + SEM: 8-14
[11]
  MIC + SEM: 2.6 ± 0.2
[12]
  MIC + SEM: 2.3 ± 0.1
[13]
  MIC + SEM: 5.6 ± 0.1
[14]
  MIC + SEM: 3.0 ± 0.1
[15]
  MIC + SEM: 28 ± 0.4
[16]
  MIC + SEM: 8-14
[17]
  MIC + SEM: 8-14
[18]
  MIC + SEM: 4.8 ± 0.3
[19]
  MIC + SEM: 9.9 ± 0.2
